Experimental data taken from US12459951B2, “Compounds that interact with RAS superfamily proteins for treatment of cancers, inflammatory diseases, rasopathies, and fibrotic disease” (SHY Therapeutics, LLC, priority 2022, dated 2025).
pIC50: −log10 of the molar value.

Legend:
MAPK p38 phosphorylation = assay: MAPK p38 Activation Assay (western blot), Panc-1; type: cell-based, human; conditions: at 10 μM, Panc-1 pancreatic cancer cell line; starred symbols = activation
How it was run: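 Panc-1 cells (KRas G12D) were treated with compound for 6 h at 37 °C, at 10 μM or as serial dilutions for IC50, with 0.3% DMSO. Method 1 used overnight serum-starved cells (0.5% FBS) stimulated with 1.5 ng/ml EGF for 15 min; Method 2 used unstimulated cells in 10% FBS. Phospho-p38 (Thr180/Tyr182) was detected by western blot.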

[1] = test system: MiaPaca-2 (expressing KRAS G12C mutant); assay: Proliferation Assay (Cell Viability Assay); type: cell-based; conditions: Homo sapiens, MIA PaCa-2; read-out: Proliferation in MiaPaca-2: IC50
How it was run: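 After 2–4 days' exposure at 37 °C, 5% CO2 to a single 10 μM final concentration or a dilution series (IC50), percent proliferation inhibition was derived from CellTiter 96 Aqueous One viability readings. The medium contained 0.3% DMSO and 10% FBS. KRAS G12C MiaPaca-2 cells were plated at 2000–5000/well the day before.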

| pIC50 [1] | Structure (SMILES) | % inh of MAPK p38 in Panc-1 (MAPK p38 phosphorylation) |
| --- | --- | --- |
| < 6.00 | Cc1c(-c2ccn(C(C)C)n2)cn2nc(-c3nccn3C)nc(Nc3nc(C4CC4)no3)c12 [Compound 70, 3-Cyclopropyl-N-(6-(1-isopropyl-1H-pyrazol-3-yl)-5-methyl-2-(1-methyl-1H-imidazol-2-yl)pyrrolo[2,1-f][1,2,4]triazin-4-yl)-1,2,4-oxadiazol-5-amine] | H* (H* ≥ 100% activation) |
| < 6.00 | COc1ccc(Nc2nc(-c3nccn3C)nn3cc(-c4ccn(C(C)C)n4)c(C)c23)cn1 [Compound 71, 6-(1-Isopropyl-1H-pyrazol-3-yl)-N-(6-methoxypyridin-3-yl)-5-methyl-2-(1-methyl-1H-imidazol-2-yl)pyrrolo[2,1-f][1,2,4]triazin-4-amine] | H* (H* ≥ 100% activation) |
| < 6.00 | Cc1c(-c2ccn(C(C)C)n2)cn2nc(-c3nccn3C)nc(Nc3ccn(C(C)C)n3)c12 [Compound 72, N,6-bis(1-Isopropyl-1H-pyrazol-3-yl)-5-methyl-2-(1-methyl-1H-imidazol-2-yl)pyrrolo[2,1-f][1,2,4]triazin-4-amine] | H* (H* ≥ 100% activation) |
